Source: ChEMBL document CHEMBL5150077, “Identification of TUL01101: A Novel Potent and Selective JAK1 Inhibitor for the Treatment of Rheumatoid Arthritis” (J Med Chem, 2022)
Activity calls are given as the source filed them. The rule behind the calls is not given here.

Assays:
[1] = Apparent permeability across basolateral to apical side in human Caco-2 cells at 10 uM measured after 120 mins by LC-MS/MS analysis
[2] = biological target: T1, Cytochrome P450 1A2 (Homo sapiens, UniProt P05177); assay: Inhibition of CYP1A2 in human liver microsomes incubated in presence NADPH by LC-MS/MS analysis
T1 sequence (P05177 whole entry): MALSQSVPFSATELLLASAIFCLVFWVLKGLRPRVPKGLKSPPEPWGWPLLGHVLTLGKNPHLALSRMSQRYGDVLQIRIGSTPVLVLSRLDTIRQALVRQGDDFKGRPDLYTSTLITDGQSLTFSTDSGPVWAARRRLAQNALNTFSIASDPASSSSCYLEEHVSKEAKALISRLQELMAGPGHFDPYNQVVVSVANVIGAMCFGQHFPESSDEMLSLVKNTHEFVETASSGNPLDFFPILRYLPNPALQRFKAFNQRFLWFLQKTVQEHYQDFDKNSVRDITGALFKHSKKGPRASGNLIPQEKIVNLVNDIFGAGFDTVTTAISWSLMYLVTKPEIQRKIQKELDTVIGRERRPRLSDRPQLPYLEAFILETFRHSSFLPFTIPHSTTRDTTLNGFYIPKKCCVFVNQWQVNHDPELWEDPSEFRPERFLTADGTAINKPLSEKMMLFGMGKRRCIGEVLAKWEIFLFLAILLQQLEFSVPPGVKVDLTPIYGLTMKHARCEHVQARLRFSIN

[3] = biological target: Cytochrome P450 3A4 (Homo sapiens, UniProt P08684); assay: Inhibition of CYP3A4 in human liver microsomes incubated in presence NADPH by LC-MS/MS analysis
Sequence of Cytochrome P450 3A4 (P08684 whole entry): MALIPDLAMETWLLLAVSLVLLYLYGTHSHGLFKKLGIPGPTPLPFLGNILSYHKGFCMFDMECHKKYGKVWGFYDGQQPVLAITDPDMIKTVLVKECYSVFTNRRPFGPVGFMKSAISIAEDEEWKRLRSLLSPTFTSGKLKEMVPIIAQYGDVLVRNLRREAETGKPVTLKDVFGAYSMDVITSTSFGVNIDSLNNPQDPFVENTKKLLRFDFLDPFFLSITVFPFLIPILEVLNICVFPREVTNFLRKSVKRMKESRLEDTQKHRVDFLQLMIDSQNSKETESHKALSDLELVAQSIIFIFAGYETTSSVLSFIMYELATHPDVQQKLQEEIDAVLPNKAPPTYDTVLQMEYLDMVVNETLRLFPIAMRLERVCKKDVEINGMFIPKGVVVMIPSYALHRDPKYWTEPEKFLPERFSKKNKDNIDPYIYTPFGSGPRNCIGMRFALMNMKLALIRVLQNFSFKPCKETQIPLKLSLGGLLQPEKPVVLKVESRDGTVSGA

[4] = biological target: Cytochrome P450 2C19 (Homo sapiens, UniProt P33261); assay: Inhibition of CYP2C19 in human liver microsomes incubated in presence NADPH by LC-MS/MS analysis
Sequence of Cytochrome P450 2C19 (P33261 whole entry): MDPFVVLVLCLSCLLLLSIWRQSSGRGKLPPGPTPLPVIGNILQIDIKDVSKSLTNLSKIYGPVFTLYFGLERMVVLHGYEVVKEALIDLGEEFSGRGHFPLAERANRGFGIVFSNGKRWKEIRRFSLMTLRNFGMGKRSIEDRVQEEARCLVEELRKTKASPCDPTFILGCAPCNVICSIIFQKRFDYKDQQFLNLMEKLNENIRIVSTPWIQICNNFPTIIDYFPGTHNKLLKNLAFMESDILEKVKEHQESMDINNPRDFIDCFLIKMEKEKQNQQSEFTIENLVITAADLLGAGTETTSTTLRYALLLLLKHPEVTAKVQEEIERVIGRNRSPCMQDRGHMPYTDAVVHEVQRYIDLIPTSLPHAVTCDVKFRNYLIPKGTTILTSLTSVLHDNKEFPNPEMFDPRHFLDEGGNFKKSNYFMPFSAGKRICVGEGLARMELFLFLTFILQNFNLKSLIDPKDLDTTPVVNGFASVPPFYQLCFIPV

[5] = Plasma protein binding in human assessed as unbound fraction at 2 uM incubated for 4 hrs by LC/MS/MS based balanced dialysis method
[6] = Microsomal stability in human liver microsomes assessed as intrinsic clearance at 1 uM incubated for 60 mins in presence of NADPH regenerating system by LC-MS/MS analysis; type: ADME, Microsome; conditions: read-out: CLH
[7] = biological target: T2, Cytochrome P450 2B6 (Homo sapiens, UniProt P20813); assay: Inhibition of CYP2B6 in human liver microsomes incubated in presence NADPH by LC-MS/MS analysis
T2 sequence (P20813 whole entry): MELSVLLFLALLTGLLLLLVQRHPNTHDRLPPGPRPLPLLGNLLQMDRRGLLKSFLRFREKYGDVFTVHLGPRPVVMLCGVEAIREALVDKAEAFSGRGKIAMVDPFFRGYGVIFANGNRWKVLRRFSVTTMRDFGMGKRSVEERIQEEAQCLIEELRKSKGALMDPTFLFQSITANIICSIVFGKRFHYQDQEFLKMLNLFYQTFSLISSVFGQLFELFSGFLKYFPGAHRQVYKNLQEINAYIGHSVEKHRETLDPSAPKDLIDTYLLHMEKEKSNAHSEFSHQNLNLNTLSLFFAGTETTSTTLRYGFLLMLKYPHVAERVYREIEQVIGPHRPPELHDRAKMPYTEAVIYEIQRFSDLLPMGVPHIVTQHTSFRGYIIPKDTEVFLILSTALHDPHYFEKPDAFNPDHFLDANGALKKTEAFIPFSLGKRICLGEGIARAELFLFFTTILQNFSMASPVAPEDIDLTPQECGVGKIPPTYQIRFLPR

[8] = biological target: Cytochrome P450 2D6 (Homo sapiens, UniProt P10635); assay: Inhibition of CYP2D6 in human liver microsomes incubated in presence NADPH by LC-MS/MS analysis
Sequence of Cytochrome P450 2D6 (P10635 whole entry): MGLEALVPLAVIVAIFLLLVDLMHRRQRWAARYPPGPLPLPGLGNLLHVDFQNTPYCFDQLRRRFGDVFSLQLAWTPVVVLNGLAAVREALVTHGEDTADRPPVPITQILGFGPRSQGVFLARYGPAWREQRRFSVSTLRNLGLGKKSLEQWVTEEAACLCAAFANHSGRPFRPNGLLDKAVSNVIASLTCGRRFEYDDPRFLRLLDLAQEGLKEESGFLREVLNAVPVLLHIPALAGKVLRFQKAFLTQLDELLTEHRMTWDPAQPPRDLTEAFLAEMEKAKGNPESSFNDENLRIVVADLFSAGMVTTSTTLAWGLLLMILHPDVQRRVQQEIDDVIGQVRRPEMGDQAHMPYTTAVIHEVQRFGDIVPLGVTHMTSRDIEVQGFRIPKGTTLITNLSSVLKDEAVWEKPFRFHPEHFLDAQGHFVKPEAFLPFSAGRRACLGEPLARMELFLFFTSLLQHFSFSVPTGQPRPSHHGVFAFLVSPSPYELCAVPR

[9] = Metabolic stability in rat hepatocytes assessed as intrinsic clearance at 1 uM incubated for 90 mins by LC/MS/MS analysis; type: ADME, cell-based, Hepatocyte
[10] = Apparent permeability across apical to basolateral side in human Caco-2 cells at 10 uM measured after 120 mins by LC-MS/MS analysis; conditions: for Papp A→B at 2 h, 10 µM: Caco-2
[11] = Metabolic stability in mouse hepatocytes assessed as intrinsic clearance at 1 uM incubated for 90 mins by LC/MS/MS analysis; type: ADME, cell-based, Hepatocyte
[12] = biological target: Cytochrome P450 2C9 (Homo sapiens, UniProt P11712); assay: Inhibition of CYP2C9 in human liver microsomes incubated in presence NADPH by LC-MS/MS analysis
Sequence of Cytochrome P450 2C9 (P11712 whole entry): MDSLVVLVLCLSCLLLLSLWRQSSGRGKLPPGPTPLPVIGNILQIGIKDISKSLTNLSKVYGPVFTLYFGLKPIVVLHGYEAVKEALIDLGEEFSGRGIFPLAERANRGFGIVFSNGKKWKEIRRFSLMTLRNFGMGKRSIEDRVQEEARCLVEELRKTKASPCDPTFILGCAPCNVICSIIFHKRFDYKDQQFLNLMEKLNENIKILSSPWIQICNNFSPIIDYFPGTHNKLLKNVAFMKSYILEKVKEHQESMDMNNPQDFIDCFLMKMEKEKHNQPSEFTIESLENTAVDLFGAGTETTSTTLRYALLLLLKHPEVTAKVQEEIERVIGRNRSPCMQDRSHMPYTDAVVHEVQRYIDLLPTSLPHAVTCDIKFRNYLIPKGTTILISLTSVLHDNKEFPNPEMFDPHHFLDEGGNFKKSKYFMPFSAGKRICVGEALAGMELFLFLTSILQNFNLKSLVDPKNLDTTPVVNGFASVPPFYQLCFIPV

[13] = Plasma protein binding in mouse assessed as unbound fraction at 2 uM incubated for 4 hrs by LC/MS/MS based balanced dialysis method
[14] = Plasma protein binding in rat assessed as unbound fraction at 2 uM incubated for 4 hrs by LC/MS/MS based balanced dialysis method
[15] = Microsomal stability in mouse liver microsomes assessed as intrinsic clearance at 1 uM incubated for 60 mins in presence of NADPH regenerating system by LC-MS/MS analysis; type: ADME, Microsome; conditions: read-out: CLH
[16] = Metabolic stability in human hepatocytes assessed as intrinsic clearance at 1 uM incubated for 90 mins by LC/MS/MS analysis; type: ADME, cell-based, Hepatocyte
[17] = Microsomal stability in rat liver microsomes assessed as intrinsic clearance at 1 uM incubated for 60 mins in presence of NADPH regenerating system by LC-MS/MS analysis; type: ADME, Microsome; conditions: read-out: CLH
[18] = biological target: T3, Cytochrome P450 2C8 (Homo sapiens, UniProt P10632); assay: Inhibition of CYP2C8 in human liver microsomes incubated in presence NADPH by LC-MS/MS analysis
T3 sequence (P10632 whole entry): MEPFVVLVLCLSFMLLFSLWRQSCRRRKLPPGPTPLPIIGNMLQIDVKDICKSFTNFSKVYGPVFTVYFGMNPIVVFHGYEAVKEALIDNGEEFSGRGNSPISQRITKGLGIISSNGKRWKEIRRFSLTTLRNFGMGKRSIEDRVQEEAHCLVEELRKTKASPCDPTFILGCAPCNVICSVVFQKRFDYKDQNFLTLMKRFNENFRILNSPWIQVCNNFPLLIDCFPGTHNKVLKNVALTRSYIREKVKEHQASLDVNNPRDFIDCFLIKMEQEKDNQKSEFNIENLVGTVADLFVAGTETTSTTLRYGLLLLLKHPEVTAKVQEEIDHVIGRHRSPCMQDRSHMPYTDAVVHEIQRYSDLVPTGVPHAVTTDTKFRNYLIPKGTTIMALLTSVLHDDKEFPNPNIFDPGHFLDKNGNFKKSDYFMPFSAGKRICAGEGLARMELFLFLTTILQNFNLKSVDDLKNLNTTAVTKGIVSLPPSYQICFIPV

[19] = Efflux ratio of apparent permeability from basolateral to apical side over apical to basolateral side in human Caco-2 cells at 10 uM incubated for 120 mins by LC-MS/MS analysis
[20] = species: Homo sapiens; assay: Selectivity index, ratio of IC50 for inhibition of recombinant human TYK2 to IC50 for inhibition of recombinant human JAK1
[21] = species: Homo sapiens; assay: Selectivity index, ratio of IC50 for inhibition of recombinant human JAK2 to IC50 for inhibition of recombinant human JAK1
[22] = test system: Mus musculus; assay: Antiarthritic activity in collagen-induced rheumatoid arthritis DBA/1 mouse model assessed as reduction in incidence rate at 15 mg/kg, po BID administered for 14 days starting from 7 days before immunization to 21 days after immunization and measured post last dose; type: functional; set-up: scale not given: the % may be the effect or the level left; conditions: time 14 day
[23] = test system: Mus musculus; assay: Antiarthritic activity in collagen-induced rheumatoid arthritis DBA/1 mouse model assessed as reduction in clinical score AUC at 15 mg/kg, po BID administered for 14 days starting from 7 days before immunization to 21 days after immunization and measured on day 41 post immunization; type: functional, organism-based; conditions: time 14.0 day

SMILES	Papp B→A at 2 h, 10 µM [1] [×10⁻⁶ cm/s]	IC50 [2] [µM]	IC50 [3] [µM]	IC50 [4] [µM]	fraction unbound at 4 h, 2 µM [5]	microsomal CLint at 1 µM [6] [µL/min/mg]	IC50 [7] [µM]	IC50 [8] [µM]	CLH [9] [µL/min/mg]	Papp A→B at 2 h, 10 µM [10] [×10⁻⁶ cm/s]	CLH [11] [µL/min/mg]	IC50 [12] [µM]	fraction unbound at 4 h, 2 µM [13]	fraction unbound at 4 h, 2 µM [14]	microsomal CLint at 1 µM [15] [µL/min/mg]	CLH [16] [µL/min/mg]	microsomal CLint at 1 µM [17] [µL/min/mg]	IC50 [18] [µM]	also measured
N#CCC(=O)N1CC2(CCC(c3cccc4nc(NC(=O)C5CC5)nn34)CC2)C1	20.4	> 100	> 100	> 100	0.515	< 9.6	> 100	> 100	< 6.4	0.1	< 6.6	> 100	0.479	0.544	< 9.6	< 6.4	< 9.6	> 100	
O=C(Nc1nc2cccc(C3CCC(NC(=O)C4(F)CC4)CC3)n2n1)C1CC1 (stereo not drawn)	28.6	> 100	> 100	> 100	0.306	< 9.6	> 100	> 100	< 6.4	4.36	15.3	> 100	0.28	0.196	10.6	< 6.4	< 9.6	> 100	efflux ratio at 2 h, 10 µM [19]: 6.57; Ratio IC50 [20]: 4.1; Ratio IC50 [21]: 11.6
O=C(Nc1nc2cccc(-c3ccc(CN4CCS(=O)(=O)CC4)cc3)n2n1)C1CC1 [FILGOTINIB]	24.5	65.6		88.2	0.518	< 9.6	> 100	> 100	< 6.4		22.3	> 100	0.316	0.399	< 9.6	< 6.4	< 9.6	> 100	Activity [22]: 100%; Activity [23]: Active; Papp ([10]; caco-2, 2 h, 10 µM): 0.28 10^-6 cm/s
